Test results reported in ChEMBL document CHEMBL3997769, “Discovery and preclinical evaluation of 7-benzyl-N-(substituted)-pyrrolo[3,2-d]pyrimidin-4-amines as single agents with microtubule targeting effects along with triple-acting angiokinase inhibition as antitumor agents” (Bioorg Med Chem, 2017).

Experiments:
Bos taurus = organism: Bos taurus; assay: Displacement of [3H]colchicine from bovine brain tubulin at 5 uM measured after 10 mins by liquid scintillation counting method relative to control
K562 = assay: Growth inhibition of human K562 cells incubated for 48 hrs by sulforhodamine B assay; format: functional; conditions: K562, 48 h
SR = assay: Growth inhibition of human SR cells incubated for 48 hrs by sulforhodamine B assay; format: functional
HOP-62 = assay: Growth inhibition of human HOP62 cells incubated for 48 hrs by sulforhodamine B assay; format: functional; conditions: HOP-62, 48 h
NCI-H226 = assay: Growth inhibition of human NCI-H226 cells incubated for 48 hrs by sulforhodamine B assay; format: functional; conditions: NCI-H226, 48 h
NCI-H322M = assay: Growth inhibition of human NCI-H322M cells incubated for 48 hrs by sulforhodamine B assay; format: functional
NCI-H522 = assay: Growth inhibition of human NCI-H522 cells incubated for 48 hrs by sulforhodamine B assay; format: functional; conditions: NCI-H522, 48 h
HCT-116 = assay: Growth inhibition of human HCT116 cells incubated for 48 hrs by sulforhodamine B assay; format: functional; conditions: HCT-116, 48 h
SNB-19 = assay: Growth inhibition of human SNB19 cells incubated for 48 hrs by sulforhodamine B assay; format: functional; conditions: SNB-19, 48 h
SNB-75 = assay: Growth inhibition of human SNB75 cells incubated for 48 hrs by sulforhodamine B assay; format: functional; conditions: SNB-75, 48 h
U-251 = assay: Growth inhibition of human U251 cells incubated for 48 hrs by sulforhodamine B assay; format: functional; conditions: U-251, 48 h
M14 = assay: Growth inhibition of human M14 cells incubated for 48 hrs by sulforhodamine B assay; format: functional; conditions: M14, 48 h
UACC-62 = assay: Growth inhibition of human UACC62 cells incubated for 48 hrs by sulforhodamine B assay; format: functional; conditions: UACC-62, 48 h
IGROV-1 = assay: Growth inhibition of human IGROV1 cells incubated for 48 hrs by sulforhodamine B assay; format: functional; conditions: IGROV-1, 48 h
OVCAR-3 = assay: Growth inhibition of human OVCAR3 cells incubated for 48 hrs by sulforhodamine B assay; format: functional; conditions: OVCAR-3, 48 h
OVCAR-5 = assay: Growth inhibition of human OVCAR5 cells incubated for 48 hrs by sulforhodamine B assay; format: functional; conditions: OVCAR-5, 48 h
NCI/ADR-RES = assay: Growth inhibition of human NCI/ADR-RES cells incubated for 48 hrs by sulforhodamine B assay; format: functional
SK-OV-3 = assay: Growth inhibition of human SKOV3 cells incubated for 48 hrs by sulforhodamine B assay; format: functional; conditions: SK-OV-3, 48 h
786-0 = assay: Growth inhibition of human 786-0 cells incubated for 48 hrs by sulforhodamine B assay; format: functional; conditions: 786-0, 48 h
RXF 393 = assay: Growth inhibition of human RXF393 cells incubated for 48 hrs by sulforhodamine B assay; format: functional; conditions: RXF 393, 48 h
SN12C = assay: Growth inhibition of human SN12C cells incubated for 48 hrs by sulforhodamine B assay; format: functional
UO-31 = assay: Growth inhibition of human UO31 cells incubated for 48 hrs by sulforhodamine B assay; format: functional; conditions: UO-31, 48 h
Hs-578T = assay: Growth inhibition of human Hs578T cells incubated for 48 hrs by sulforhodamine B assay; format: functional
MDA-MB-468 = assay: Growth inhibition of human MDA-MB-468 cells incubated for 48 hrs by sulforhodamine B assay; format: functional; conditions: MDA-MB-468, 48 h
Mus musculus = assay: Toxicity in Balb/cJ mouse implanted with luciferase/GFP-tagged mouse 4T1 cells assessed as body weight change at 50 mg/kg, ip administered three times weekly measured at day 40 post dose; format: organism-based; conditions: in vivo

In the case of `COc1ccc(N(C)c2nc(C)nc3c(Cc4ccccc4)cn(C)c23)cc1.Cl`, the inhibition (Bos taurus) is reported as 92%, the GI50 (K562) is reported as 33.7 nM and the GI50 (SR) is reported as 33.8 nM. For the same compound, the GI50 (HOP-62) was 47.8 nM, the GI50 (NCI-H226) was 304 nM and the GI50 (NCI-H322M) was 73.6 nM. For the same compound, the GI50 (NCI-H522) was 23.9 nM, the GI50 (HCT-116) was 35 nM and the GI50 (SNB-19) was 54.7 nM. The GI50 (SNB-75) was 27.8 nM, the GI50 (U-251) was 44.3 nM and the GI50 (M14) was 29.5 nM. It also gave a GI50 (UACC-62) of 475 nM, a GI50 (IGROV-1) of 95.8 nM and a GI50 (OVCAR-3) of 35.2 nM. The GI50 (OVCAR-5) was 269 nM, the GI50 (NCI/ADR-RES) was 32.8 nM and the GI50 (SK-OV-3) was 45.4 nM. It also gave a GI50 (786-0) of 93.2 nM, a GI50 (RXF 393) of 25.4 nM and a GI50 (SN12C) of 88.7 nM. For the same compound, the GI50 (UO-31) was 209 nM, the GI50 (Hs-578T) was 62.3 nM and the GI50 (MDA-MB-468) was 30.1 nM. For the same compound, the Activity (Mus musculus) was “Non-Toxic”.
